# Measured values: US7951956B2, “Benzoimidazole compound capable of inhibiting prostaglandin D synthetase” (Taiho Pharmaceuticals Co., Ltd., priority 2005, dated 2011)
# Tests used:
# [1] = target: human hematopoietic synthase (Homo sapiens, UniProt O60760); test: Hematopoietic synthase inhibitory activity (Experiment 1); assay type: biochemical; conditions: [14C] prostaglandin H2 10 μM, preincubated at 25° C. for 5 minutes, 1 minute reaction; read-out: Concentration of Pharmaceutical Compound Required to Inhibit 50% of Hematopoietic Synthase
# Description: Experiment 1 was carried out according to the method of Urade, Y. et al. (J. Biol. Chem. 262, 3820-3825, (1987)). More specifically, the reaction mixture (49 μL); 100 mM Tris-HCl (pH 8.0), 1 mM reduced glutathione, 0.1 mg/mL γ-globulin, and human hematopoietic synthase (quantum sufficient), and a test compound (final concentration: 0.01-100 μM) were preincubated at 25° C. for 5 minutes. In place of the test compound, a DMSO solution (final concentration: 1%) was used in the solvent control group (Control Group). Subsequently, 1 μL of [^14C] prostaglandin H2 (final concentration: 10 μM) was added to start the reaction. One minute after the start of the reaction, 250 μL of a reaction stopper solution (diethylether/methanol/1M citric acid (30/4/1) cooled to −20° C. was added to stop the reaction.
# Thereafter, 50 μL of the upper layer portion (organic solvent phase) was applied to a TLC plate and developed at −20° C. for 45 minutes (developer: diethylether/methanol/acetic acid (capacity ratio=90/2/1)). After drying the plate, the plate was exposed to an imaging plate for 1 to 24 hours, and the radioactivity corresponding to prostaglandin D2 was analyzed using an image analyzer (product of FUJIFILM Corporation). The area (%) occupied by the prostaglandin D2 band per lane was calculated, and the concentration of the test compound required to inhibit 50% of the hematopoietic synthase (IC50 value) was calculated by comparison with the Control group in each experiment.
# human hematopoietic synthase, sequence (O60760 whole entry): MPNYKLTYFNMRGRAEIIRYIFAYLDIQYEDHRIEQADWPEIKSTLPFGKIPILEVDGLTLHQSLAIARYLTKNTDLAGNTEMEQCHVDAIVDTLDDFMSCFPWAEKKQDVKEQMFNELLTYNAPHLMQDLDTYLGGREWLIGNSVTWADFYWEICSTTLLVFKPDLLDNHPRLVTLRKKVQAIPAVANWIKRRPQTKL
melting point,IC50 [1],Compound
224 to 229 °C,,"O=C(c1ccccc1)c1ccc2[nH]c(-c3ccc(P(=O)(O)O)o3)nc2c1 (hydrate or solvate) [Comparative Example 3, 5-Benzophenone-2-(2-phosphono-5-furanyl)benzimidazole dihydrate]"
203 to 208 °C,796 nM,"Cc1coc(C)c1-c1nc2cc(C(=O)c3ccccc3)ccc2[nH]1 [Compound 1, 5-Benzoyl-2-(2,4-dimethylfuran-3-yl)-benzimidazole]"
143 to 146 °C,274 nM,"Cc1oc(C(N)=O)c(C)c1-c1nc2cc(C(=O)c3ccccc3)ccc2[nH]1 [Compound 2, 4-(5-Benzoylbenzimidazol-2-yl)-3,5-dimethylfuran-2-carboxamide]"
239 to 241 °C,1450 nM,"O=C(c1ccccc1)c1ccc2[nH]c(-c3c[nH]c(C(=O)O)c3)nc2c1 [Compound 5, 4-(5-Benzoylbenzimidazol-2-yl)-pyrrole-2-carboxylic acid]"
160 to 162 °C,1740 nM,"O=C(c1ccccc1)c1ccc2[nH]c(-c3c[nH]c(C(=O)N4CCCC4)c3)nc2c1 [Compound 6, ((4-(5-Benzoylbenzimidazol-2-yl)-pyrrol-2-yl)-carbonyl)pyrrolidine]"
207 to 214 °C,588 nM,"Cc1c[nH]c(C)c1-c1nc2cc(C(=O)c3ccccc3)ccc2[nH]1 [Compound 7, 2-(2,4-Dimethyl-pyrrol-3-yl)-5-benzoylbenzimidazole]"
253 to 255 °C,,"Cc1[nH]c(C=O)c(C)c1-c1nc2cc(C(=O)c3ccccc3)ccc2[nH]1 [Compound 8, 2-(2-Formyl-3,5-dimethyl-pyrrol-4-yl)-5-benzoylbenzimidazole]"
201 to 203 °C,110 nM,"Cc1[nH]c(/C=C/C#N)c(C)c1-c1nc2cc(C(=O)c3ccccc3)ccc2[nH]1 [Compound 9, 2-(2-Acrylonitrile-3,5-dimethyl-pyrrol-4-yl)-5-benzoylbenzimidazole]"
256 to 258 °C,304 nM,"Cc1[nH]c(C(=O)NCCC(=O)O)c(C)c1-c1nc2cc(C(=O)c3ccccc3)ccc2[nH]1 [Compound 21, N-(2-Carboxyethyl)-4-(5-benzoylbenzimidazol-2-yl)-3,5-dimethylpyrrole-2-carboxamide]"
267 to 271 °C,643 nM,"Cc1[nH]c(C(=O)N2CCC(C(=O)O)CC2)c(C)c1-c1nc2cc(C(=O)c3ccccc3)ccc2[nH]1 [Compound 45, ((4-(5-Benzoylbenzimidazol-2-yl)-3,5-dimethylpyrrol-2-yl)-carbonyl)piperidine-4-carboxylic acid]"
258 to 260 °C,758 nM,"Cc1[nH]c(C(=O)N2CCC(C(=O)NCCN(C)C)CC2)c(C)c1-c1nc2cc(C(=O)c3ccccc3)ccc2[nH]1 [Compound 46, N-Dimethylaminoethyl-1-((4-(5-benzoylbenzimidazol-2-yl)-3,5-dimethylpyrrol-2-yl)-carbonyl)piperidine-4-carboxamide]"
128 to 133 °C,,"O=C(c1ccccc1)c1ccc2nc(-c3ccc[nH]3)[nH]c2c1 [Compound 51, 5-Benzoyl-2-(pyrrol-2-yl)-benzimidazole]"
225 to 229 °C,4800 nM,"Cc1cc(C)c(-c2nc3cc(C(=O)c4ccccc4)ccc3[nH]2)[nH]1 [Compound 52, 5-Benzoyl-2-(3,5-dimethylpyrrol-2-yl)-benzimidazole]"
185 to 187 °C,3080 nM,"CCOC(=O)c1c(C)[nH]c(-c2nc3cc(C(=O)c4ccccc4)ccc3[nH]2)c1C [Compound 53, 5-(5-Benzoylbenzimidazole-2-yl)-2,4-dimethylpyrrole-3-carboxylic acid ethyl ester]"
170 °C,4130 nM,"O=C(c1ccccc1)c1ccc2[nH]c(-c3ccc(C(=O)O)o3)nc2c1 [Compound 57, 5-(5-Benzoylbenzimidazol-2-yl)-furan-2-carboxylic acid]"
,4360 nM,"NC(=O)c1ccc(-c2nc3cc(C(=O)c4ccccc4)ccc3[nH]2)o1 [Compound 60, 5-(5-Benzoylbenzimidazol-2-yl)-furan-2-carboxamide]"

melting point,IC50 [1],Compound
,2430 nM,"O=C(c1ccccc1)c1ccc2[nH]c(-c3ccc(C(=O)NCc4ccc5c(c4)OCO5)o3)nc2c1 [Compound 62, N-(3,4-Methylenedioxyphenylmethyl)-5-(5-benzoylbenzimidazol-2-yl)-furan-2-carboxamide]"
,1250 nM,O=C(c1ccccc1)c1ccc2[nH]c(-c3ccc(C(=O)N4CCSC4)o3)nc2c1 [Compound 63]
,377 nM,"Cc1[nH]c(C(=O)N(C)C)c(C)c1-c1nc2cc(C(=O)c3ccccc3)ccc2[nH]1 [Compound 64, (N,N-Dimethyl)-4-(5-benzoylbenzimidazol-2-yl)-3,5-dimethylpyrrole-2-carboxamide]"
,124 nM,"Cc1[nH]c(C(=O)N(C)O)c(C)c1-c1nc2cc(C(=O)c3ccccc3)ccc2[nH]1 [Compound 65, (N-Hydroxy-N-methyl)-4-(5-benzoylbenzimidazol-2-yl)-3,5-dimethylpyrrole-2-carboxamide]"
,77 nM,"CNC(=O)c1[nH]c(C)c(-c2nc3cc(C(=O)c4ccccc4)ccc3[nH]2)c1C [Compound 66, (N-Methyl)-4-(5-benzoylbenzimidazol-2-yl)-3,5-dimethylpyrrole-2-carboxamide]"
196 to 210 °C,109 nM,"Cc1[nH]c(C(=O)NCO)c(C)c1-c1nc2cc(C(=O)c3ccccc3)ccc2[nH]1 [Compound 67, (N-Hydroxymethyl)-4-(5-benzoylbenzimidazol-2-yl)-3,5-dimethylpyrrole-2-carboxamide]"
239 to 242 °C,210 nM,"CCOC(=O)c1[nH]c(C)c(-c2nc3cc(Oc4ccccc4)ccc3[nH]2)c1C [Compound 68, 4-(5-Phenoxybenzimidazole-2-yl)-3,5-dimethylpyrrole-2-carboxylic acid ethyl ester]"
167 to 172 °C (dec.),491 nM,"Cc1[nH]c(C(=O)O)c(C)c1-c1nc2cc(Oc3ccccc3)ccc2[nH]1 [Compound 69, 4-(5-Phenoxybenzimidazole-2-yl)-3,5-dimethylpyrrole-2-carboxylic acid]"
251 to 254 °C,614 nM,"Cc1[nH]c(C(=O)N2CCCC2)c(C)c1-c1nc2cc(Oc3ccccc3)ccc2[nH]1 [Compound 70, ((4-(5-Phenoxybenzimidazole-2-yl)-3,5-dimethylpyrrol-2-yl)-2-carbonyl)pyrrolidine]"
,870 nM,"Cc1[nH]c(C(=O)N2CCOCC2)c(C)c1-c1nc2cc(Oc3ccccc3)ccc2[nH]1 [Compound 71, ((4-(5-Phenoxybenzimidazole-2-yl)-3,5-dimethylpyrrol-2-yl)-2-carbonyl)morpholine]"
,209 nM,"Cc1[nH]c(C(=O)NCCc2ccccn2)c(C)c1-c1nc2cc(Oc3ccccc3)ccc2[nH]1 [Compound 72, N-(2-(2-Pyridyl)ethyl)-4-(5-phenoxybenzimidazole-2-yl)-3,5-dimethylpyrrole-2-carboxamide]"
,240 nM,"CONC(=O)c1[nH]c(C)c(-c2nc3cc(Oc4ccccc4)ccc3[nH]2)c1C [Compound 73, N-(Methoxy)-4-(5-phenoxybenzimidazole-2-yl)-3,5-dimethylpyrrole-2-carboxamide]"
,263 nM,"CON(C)C(=O)c1[nH]c(C)c(-c2nc3cc(Oc4ccccc4)ccc3[nH]2)c1C [Compound 74, (N-Methoxy-N-methyl)-4-(5-phenoxybenzimidazole-2-yl)-3,5-dimethylpyrrole-2-carboxamide]"
,218 nM,"Cc1[nH]c(C#N)c(C)c1-c1nc2cc(Oc3ccccc3)ccc2[nH]1 [Compound 75, 2-(2-Cyano-3,5-dimethylpyrrol-4-yl)-5-phenoxybenzimidazole]"
,109 nM,"Cc1oc(C(N)=O)c(C)c1-c1nc2cc(Oc3ccccc3)ccc2[nH]1 [Compound 76, 4-(5-Phenoxybenzimidazole-2-yl)-3,5-dimethylfuran-2-carboxamide]"
,24400 nM,"c1ccc(C(OC2CCN(CCCc3nnn[nH]3)CC2)c2ccccc2)cc1 [HQL-79, 4-benzhydryloxy-1-((3-(1H-tetrazol-5-yl)-propyl))piperidine, reference compound]"
